Entries after “also recorded” stand apart in the source; their conditions may differ. Like-named read-outs stand apart in the source and are kept apart here.
Columns and labels:
Duplex DNA = assay: Polymerase stop assay, pausing at primer position (duplex product); format: biochemical; conditions: for Duplex DNA (ED30 μM): normalized percentage of duplex product; for Duplex DNA ED30, fold in parentheses (relative to c-MYC ED50): value in parentheses (×)
Experimental: These were synthesized and purified as described above. Labeled primer (100 nM) and template DNA (100 nM) were annealed in an annealing buffer (50 mM Tris-HCl, pH 7.5, 10 mM NaCl) by heating to 95° C. and then slowly cooled to room temperature. […] KCl and NaCl (10 mM each) were added to the reaction. Taq DNA polymerase was added, and the mixture was incubated at 55° C. for 20 min.
Pausing at the G-quadruplex forming site is quantified as the normalized percentage of stop product with respect to the total intensity per lane. […] This is quantified as the normalized percentage of duplex product with respect to the total intensity per lane.

c-MYC G-quadruplex = assay: Photomediated strand cleavage reaction
[1] = test system: human telomeric G-quadruplex; assay: G-quadruplex polymerase stop assay, human telomeric template; format: biochemical; conditions: for EC50: Taq polymerase stop product, four TTAGGG repeats template, 37° C., read-out: Huam Telomeric (ED50 μM)
[2] = test system: c-MYC expression in HeLa S3 cells; assay: Effect on c-MYC transcription (real-time PCR, normalized to β-actin); format: cell-based, human; conditions: at high (100 μM) concentration, 24 h
Experimental: In this example, the various porphyrins were tested for their effect on c-MYC RNA levels normalized to the levels of β-actin RNA production.
TMPyP4, at a concentration of 100 μM, was also included for comparison.
Cell cultures were permitted to reach ˜50% confluency before test compound was added for 24 hour treatments. This was adjusted as necessary depending on treatment times. Test compounds were diluted in media in which the cells were normally cultured. Cells were washed once with PBS, and new media containing compound was added directly to the flask. Cells were harvested concurrently with untreated cells. Timepoints were collected in duplicate for each treatment.
RNA was extracted as follows: Cell pellets were lysed in Buffer RA I supplemented with 1% β-mercaptoethanol and RNA extracted according to the protocol included with the kit, and eluted in 50 μl of nuclease-free water included in the kit. RNA was quantitated by ultraviolet spectrophotometry, resuspended to a convenient concentration for downstream applications, and stored at −80° C. […]
Real-time PCR was performed using the QuantiTect SYBR Green PCR Kit (Qiagen). […]
The reactions were incubated in a DNA Engine Opticon Continuous Fluorescence Detector (MJ Research) as follows: 95° C., 14 min; (95° C., 1 min; 59° C., 1 min, 10 sec; 72° C., 1 min, 30 sec; plate read for fluorescence) 40×; 72° C., 10 min. […]

[3] = molecular target: c-MYC G-quadruplex (PU27 c-MYC sequence); assay: G-quadruplex polymerase stop assay, PU27 c-MYC template; format: biochemical; conditions: for EC50: Taq polymerase stop product, PU27 c-MYC template, 55° C., read-out: c-MYC (ED50 μM); for fold selectivity/preference for the c-MYC G-quadruplex over the human telomeric G-quadruplex: from ED50 values
HeLa S3 cells = assay: In vitro cytotoxicity assay (CellTiter 96 MTS); format: cell-based, human
Experimental: HeLa S3 (human cervical carcinoma metastasis were obtained from ATCC, and were cultured in Dulbecco's modification of Eagle's Medium (DMEM, Cellgro) with 10% FBS, 50 U/ml penicillin G sodium, 50 U/ml streptomycin sulfate. Adherent cells were grown to 80% confluency and passaged at 1:10 in the following fashion. The medium was aspirated by vacuum, and the cells were washed with 1×PBS (Cellgro). Sufficient trypsin (Gibco/BRL) was added to cover the cells, and cells were incubated at room temperature for approximately 3 min, or until cells detached from the flask with firm tapping. The trypsin was neutralized with an equal volume of culture medium, and the cells were counted using a haemocytometer and passaged at 1:10 into fresh medium. […]
In vitro cytotoxicity assays were performed using the CellTiter 96 Non-Radioactive Cell Proliferation Assay (Promega Corp., Madison, Wis.). […] Absorbance was measured using a Wallac Victor Multilabel Counter (Perkin Elmer, Shelton, Conn.) at 490 nm. Data were expressed as the percentage of survival of control calculated from the absorbance corrected for background absorbance. The surviving fraction of cells was determined by dividing the mean absorbance values of the test agents by the mean absorbance values of untreated control.

| Compound | duplex (or single strand) DNA binding, in words (Duplex DNA) | photoinduced cleavage of c-MYC G-quadruplex / photoactivity (c-MYC G-quadruplex; compared to TMPyP4, FIG. 7) | interaction with the human telomeric G-quadruplex structure (ED50 can't be calculated) [1] | pausing in the polymerase synthesis at the G-quadruplex forming site ([1]; at 20 μM, template containing human telomeric sequence, FIG. 5B) | inhibitory effect on c-MYC expression [2] | EC50 [3] [µM] | fold selectivity/preference for the c-MYC G-quadruplex over the human telomeric G-quadruplex [3] | concentration giving complete arrest of the polymerase synthesis at the G-quadruplex forming site ([3]; template containing c-MYC sequence, FIG. 5A) [µM] | Duplex DNA (ED30 μM) (Duplex DNA) | Duplex DNA ED30, fold in parentheses (relative to c-MYC ED50) (Duplex DNA) | EC50 [1] [µM] | EC50 (HeLa S3 cells) [µM] | photoinduced cleavage of c-MYC G-quadruplex (c-MYC G-quadruplex; at 1 μM, FIG. 6 lane 2) | EC50 (HeLa S3 cells; HeLa S3, 4 days, MTS, FIG. 8, read-out: cytotoxicity ED50) [µM] |
| --- | --- | --- | --- | --- | --- | --- | --- | --- | --- | --- | --- | --- | --- | --- |
| 5,10,15,20-tetra(N-methyl-3-pyridyl)-26,28-diselena sapphyrin chloride [Se2SAP] | little or no duplex binding activity; also recorded: absence of duplex binding | minimal cleavage; also recorded: not photoactive | only very little interaction | little pausing | comparable to TMPyP4; also recorded: same as that of TMPyP4 | 0.025 | greater than 1,000 fold | 0.04 | – | – | – | – | – | – |
| C[n+]1cccc(-c2c3nc(c(-c4ccc[n+](C)c4)c4ccc([nH]4)c(-c4ccc[n+](C)c4)c4nc(c(-c5ccc[n+](C)c5)c5ccc2[nH]5)C=C4)C=C3)c1 [TMPyP3] | – | – | – | – | – | 2.34 | 8 fold | – | >50 (>50) μM | >50 (>50) | 19.5 | 43.4 | – | – |
| C[n+]1ccc(-c2c3nc(c(-c4cc[n+](C)cc4)c4ccc([nH]4)c(-c4cc[n+](C)cc4)c4ccc([nH]4)c(-c4cc[n+](C)cc4)c4nc2C=C4)C=C3)cc1 [TMPyP4] | little or no duplex binding activity | – | – | – | – | 0.99 | 19 fold | – | >50 (>50) μM | >50 (>50) | 18.9 | – | considerable cleavage pattern | 25.6 |

From patent publication US7001588B2, “Expanded porphyrin compositions for tumor inhibition” (Cylene Pharmaceuticals, priority 2002, dated 2006)
